Measurements as given in publication PMC9994261 (Cell, 2023).
≈ marks a conversion by molar mass, not a printed value. Read-outs that look alike come from different tables or passages of the source.

How the values were obtained:
[1] = test system: Mtb ribosome; assay type: biochemical, Mycobacterium tuberculosis
[2] = test system: Mtb methylated ribosome; experiment: Mtb in vitro translation assay with methylated (erythromycin-treated) ribosome; assay type: biochemical, Mycobacterium tuberculosis
[3] = test system: Mtb H37Rv; experiment: Combination study in mouse model of TB; assay type: in vivo; settings: mouse, in vivo
[4] = test system: Mtb H37Rv; experiment: microbe, parasite or virus in culture; assay type: cell-based, Mycobacterium tuberculosis; settings: Mycobacterium tuberculosis, H37RV; read-out: MIC for Mtb in liquid culture
[5] = test system: M. bovis BCG Pasteur; experiment: microbe, parasite or virus in culture; assay type: cell-based, Mycobacterium bovis
[6] = test system: Mtb H37Rv; experiment: MIC80 after overnight pre-incubation of Mtb with subinhibitory macrolide; assay type: cell-based; settings: Mycobacterium tuberculosis
[7] = assay type: in vitro ADME, human; settings: for Metabolic stability in human liver microsomes (% metabolized compound after 20 min): 20 min incubation; for Metabolic stability in human liver microsomes (% metabolized compound after 20 min), (K): in presence of ketoconazole CYP3A inhibitor (K); for Metabolic stability in human liver microsomes (% metabolized compound after 20 min), (Q): in presence of quinidine CYP2D6 inhibitor (Q)
Method: The metabolic stability of test compounds was determined as described.[57]^,[58] Incubation and experimental conditions with human hepatic microsomal fractions (purchased from BD Gentest as a pooled batch from 6 donors) were as follows: microsomal proteins, 1 mg/mL; bovine serum albumin, 1 mg/mL; substrate, 5 μM; incubation duration, 20 min; cytochrome P-450 monooxygenases (CYPs) and flavin containing monooxygenases (FMOs) cofactor, 1 mM NADPH. Enzyme activity was stopped with 1 volume of acetonitrile. […] For each test compound and for each microsomal preparation, three incubations were prepared: absolute reference in buffer (without enzyme material, i.e., microsomes); incubation without NADPH cofactor (with microsomal fractions); and incubation with NADPH (with microsomal fractions). For most compounds, biotransformation, as observed in hepatic microsomal fractions in the presence of the NADPH cofactor, consists of oxidative reactions catalyzed by either CYPs or FMOs. In these conditions, the percentage of total metabolism, which corresponds to oxidative metabolism, was determined as follows: [% total metabolism] ≈ [% oxidative metabolism] = [unchanged compound (UC) peak area − NADPH UC peak area + NADPH] × 100%, where NADPH corresponds to the enzyme cofactor for oxidation reactions catalyzed by either CYP or FMO.

[8] = test system: GFP-expressing Mtb H37Rv in RAW264.7 macrophages; experiment: Intramacrophage assay (MIC for Mtb in macrophages); assay type: cell-based, Mycobacterium tuberculosis; settings: Mycobacterium tuberculosis, H37RV; read-out: MIC for Mtb tuberculosis in macrophages
[9] = assay type: in vitro ADME
[10] = in vitro; assay type: in vitro ADME; settings: human, Caco-2; read-out: Permeability in Caco2 cells (Papp)
[11] = physchem; settings: pH 7.4
[12] = pH 2, 50% acetonitrile/water
[13] = biological target: T1, CYP3A4 (Homo sapiens, UniProt P08684); experiment: CYP3A4 reversible inhibition in human liver microsomes; assay type: in vitro ADME
T1 construct: human liver microsomes (purchased from BD Gentest as a pooled batch from 150 donors); tissue BD Gentest Cat#452117; host or cells: pooled human liver microsomes (150 donors)
Method: Incubations were performed with 0.1 mg/mL human liver microsomes (purchased from BD Gentest as a pooled batch from 150 donors) in a final incubation volume of 0.25 mL. The incubation medium contained 0.05 M phosphate buffer (pH 7.4) containing an NADPH regenerating system (including 1.3 mM NADP, 3.3 mM glucose 6-phosphate,3.3 mM MgCl2, and 1.0 U/mL glucose 6-phosphate dehydrogenase). Probe CYP3A4 substrates (midazolam at 3 μM and testosterone at 50 μM), were incubated for 10 and 30 min, respectively, with increasing concentrations of GM, MGM or CGM (concentration range: 1 - 30 μM). The reaction was stopped by adding acetonitrile to precipitate the proteins. The incubation mixtures were then centrifuged for 5 min at 10,000 × g, and an aliquot of the supernatant was analyzed using high-performance liquid chromatography coupled to mass spectrometry for the assessment of 1’-hydroxymidazolam and 6β-hydroxytestosterone metabolite formation.

[14] = assay type: in vitro ADME; remark: listed apart in the source
[15] = physchem; assay type: physicochemical
[16] = in vivo; settings: male, Swiss, mouse, po; for AUC: 30 mg/kg, oral 30 mg/kg
[17] = assay type: in vitro ADME; remark: listed apart in the source
[18] = non-methylated ribosome, read-out: IC50 ribosome
[19] = methylated ribosome, read-out: IC50 methylated ribosome
[20] = read-out: Inhibition of Mtb translation (IC50 μM)
[21] = read-out: Translation inhibition of Mtb methylated ribosome (IC50 μM)
[22] = aqueous buffer, PBS pH 7.4, read-out: Solubility: PBS@pH 7.4

T1 sequence (P08684 whole entry): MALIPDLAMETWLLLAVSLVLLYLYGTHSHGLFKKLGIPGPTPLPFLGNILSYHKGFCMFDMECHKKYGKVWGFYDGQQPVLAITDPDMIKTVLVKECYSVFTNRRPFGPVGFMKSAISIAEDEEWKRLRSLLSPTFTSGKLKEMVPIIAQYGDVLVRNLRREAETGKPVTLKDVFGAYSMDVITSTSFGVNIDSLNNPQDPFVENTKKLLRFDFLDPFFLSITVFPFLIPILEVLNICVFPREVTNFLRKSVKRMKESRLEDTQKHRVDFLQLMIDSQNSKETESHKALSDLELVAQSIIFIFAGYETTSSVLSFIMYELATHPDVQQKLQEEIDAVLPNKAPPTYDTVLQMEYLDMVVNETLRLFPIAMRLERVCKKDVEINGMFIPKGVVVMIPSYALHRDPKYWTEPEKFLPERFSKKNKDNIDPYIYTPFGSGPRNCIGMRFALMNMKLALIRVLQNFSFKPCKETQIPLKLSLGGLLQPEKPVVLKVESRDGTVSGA

Structure (SMILES): CC[C@H]1OC(=O)[C@H](C)[C@@H](O[C@H]2C[C@@](C)(OC)[C@@H](O)[C@H](C)O2)[C@H](C)[C@@H](O[C@@H]2O[C@H](C)C[C@H](N(C)C)[C@H]2O)[C@](C)(O)C[C@@H](C)CN(C)[C@H](C)[C@@H](O)[C@]1(C)O [Azithromycin, reference compound]
- IC50 [1, 18]: 2.91 µM
- IC50 [2, 19]: > 100 µM

Structure (SMILES): COc1nc2ccc(Br)cc2cc1[C@@H](c1ccccc1)[C@@](O)(CCN(C)C)c1cccc2ccccc12 [BDQ, Bedaquiline]
- Mean ± SD lung CFU counts, Week 4 [3]: 2.96 ± 0.19

Structure (SMILES): CCC[C@@H]1C[C@@H](C(=O)N[C@@H]([C@H]2O[C@H](SC)[C@H](O)[C@@H](O)[C@H]2O)[C@H](C)Cl)N(C)C1 [Clindamycin, reference compound]
- IC50 [1, 18]: 0.08 µM
- IC50 [2, 19]: 42.3 µM

Structure (SMILES): CC[C@H]1OC(=O)[C@H](C)[C@@H](O[C@H]2C[C@@](C)(OC)[C@@H](O)[C@H](C)O2)[C@H](C)[C@@H](O[C@@H]2O[C@H](C)C[C@H](N(C)C)[C@H]2O)[C@](C)(O)C[C@@H](C)C(=O)[C@H](C)[C@@H](O)[C@]1(C)O [Erythromycin, reference compound]
- IC50 [1, 18]: 0.671 µM
- MIC [4]: 128 µM (≈ 93.9 µg/mL)
- IC50 [2, 19]: 140 µM

Structure (SMILES): NNC(=O)c1ccncc1 [Isoniazid, reference compound]
- Growth inhibition (MIC80) [5]: 0.40 µM
- MIC80 ([5]; Mycobacterium tuberculosis variant bovis BCG, BCG, read-out: Growth inhibition (MIC80)): 0.34 µM (≈ 0.0466 µg/mL)

Structure (SMILES): CC(=O)NC[C@H]1CN(c2ccc(N3CCOCC3)c(F)c2)C(=O)O1 [Linezolid]
- MIC80 [6]: 1 µM (≈ 0.337 µg/mL)
- Mean ± SD lung CFU counts, Week 4 [3]: 6.86 ± 0.08

Structure (SMILES): O=[N+]([O-])c1cn2c(n1)OC[C@@H](OCc1ccc(OC(F)(F)F)cc1)C2 [Pa, Pretomanid]
- Mean ± SD lung CFU counts, Week 4 [3]: 5.83 ± 0.12

Structure (SMILES): CO/N=C1\C[C@@H](C)O[C@@H](O[C@@H]2[C@@H](C)[C@H](O[C@H]3C[C@@](C)(O)[C@@H](O)[C@H](C)O3)[C@@H](C)C(=O)O[C@H]([C@@H](C)CO[C@@H]3O[C@H](C)[C@@H](O)[C@@H](OC)[C@H]3OC)[C@H](C)[C@@H](OC(=O)CC(C)C)[C@@H](C)C(=O)[C@@](C)(OC(=O)NCc3ccccc3)C[C@@H]2C)[C@@H]1O [SEQ-416, [(2R,3S,4R,5R,7S,9S,10S,11R,12S,13R)-7-(benzylcarbamoyloxy)-12-[(2R,4R,5S,6S)-4,5-dihydroxy-4,6-dimethyl-tetrahydropyran-2-yl]oxy-2-[(1S)-2-[(2R,3R,4R,5R,6R)-5-hydroxy-3,4-dimethoxy-6-methyl-tetrahydropyran-2-yl]oxy-1-methyl-ethyl]-10-[(2S,3R,4E,6R)-3-hydroxy-4-methoxyimino-6-methyl-tetrahydropyran-2-yl]oxy-3,5,7,9,11,13-hexamethyl-6,14-dioxo-oxacyclotetradec-4-yl] 3-methylbutanoate]
- IC50 [1, 20]: 0.044 µM
- Metabolic stability in human liver microsomes (% metabolized compound after 20 min) [7]: 40%
- Metabolic stability in human liver microsomes (% metabolized compound after 20 min), (K) [7]: 0.5(K) %
- Metabolic stability in human liver microsomes (% metabolized compound after 20 min), (Q) [7]: /35(Q) %
- MIC [8]: 0.63 µM (≈ 0.709 µg/mL)
- Metabolic degradation/clearance from human liver microsomes [9]: 0.057 mL/h/10^6 hepatocytes
- MIC [4]: 0.15 µM (≈ 0.169 µg/mL)
- Papp [10]: 10.4 ×10⁻⁶ cm/s
- logD [11]: 4.5
- Chemical stability: t/12@pH 2 [12]: ∼6 h
- IC50 ([13]; midazolam, read-out: CYP3A4 inhibition, IC50 with midazolam as substrate): 3000 nM
- IC50 ([13]; testosterone, read-out: CYP3A4 inhibition, IC50 with testosterone as substrate (T)): 10000 nM
- IC50 [2, 21]: 0.031 µM
- Metabolic stability in mouse liver microsomes (% metabolized compound after 20 min) [14]: 25%
- solubility ([15]; MCT pH 7.4, read-out: Solubility: MCT@pH 7.4): 599 µg/mL (≈ 532 µM)
- solubility [15, 22]: 22 µg/mL (≈ 19.5 µM)
- bioavailability [16]: 21%
- AUC ([16]; AUC in lung @30 mg/kg, lung): 4800 ng·h/mL
- AUC ([16]; AUC in plasma @30 mg/kg, plasma): 4000 ng·h/mL
- Metabolic stability in rat liver microsomes (% metabolized compound after 20 min) [17]: 22%

Structure (SMILES): COC1C(OCC(C)C2OC(=O)C(C)C(OC3CC(C)(O)C(O)C(C)O3)C(C)C(OC3OC(C)CC(=O)C3O)C(C)CC(C)(O)C(=O)C(C)C(OC(=O)CC(C)C)C2C)OC(C)C(O)C1OC [SEQ-503, (3S,4S,5R,7S,9S,10S,11R,12S,13R)-12-[(4,5-dihydroxy-4,6-dimethyltetrahydro-2H-pyran2-yl)oxy]-7-hydroxy-2-{1-[(5-hydroxy-3,4-dimethoxy-6-methyltetrahydro-2H-pyran-2-yl)oxy]propan-2-yl}-10-[(3-hydroxy-6-methyl-4-oxotetrahydro-2H-pyran-2-yl)oxy]-3,5,7,9,11,13-hexamethyl-6,14-dioxooxacyclotetradecan-4-yl) 3-methylbutanoate]
- IC50 [1, 20]: 0.021 µM
- Metabolic stability in human liver microsomes (% metabolized compound after 20 min) [7]: 67%
- Metabolic stability in human liver microsomes (% metabolized compound after 20 min), (K) [7]: 4(K) %
- Metabolic stability in human liver microsomes (% metabolized compound after 20 min), (Q) [7]: /41(Q) %
- MIC [8]: 2.5 µM (≈ 2.41 µg/mL)
- MIC [4]: 1.4 µM (≈ 1.35 µg/mL)
- Papp [10]: 0.07 ×10⁻⁶ cm/s
- IC50 ([13]; substrate not stated, read-out: CYP3A4 inhibition): > 10000 nM
- IC50 [2, 21]: 0.022 µM
- Metabolic stability in mouse liver microsomes (% metabolized compound after 20 min) [14]: 0/ND %
- solubility [15, 22]: 522 µg/mL (≈ 542 µM)
- bioavailability [16]: 22%

Structure (SMILES): CON=C1C[C@@H](C)O[C@@H](O[C@@H]2[C@@H](C)[C@H](O[C@H]3C[C@@](C)(O)[C@@H](O)[C@H](C)O3)[C@@H](C)C(=O)O[C@H](C(C)CO[C@@H]3O[C@H](C)[C@@H](O)[C@@H](OC)[C@H]3OC)[C@H](C)[C@@H](OC(=O)CC(C)C)[C@@H](C)C(=O)[C@@](C)(OC(=O)NCCn3c([N+](=O)[O-])cnc3C)C[C@@H]2C)[C@@H]1O (some centres unmarked) [SEQ-569]
- IC50 [1, 20]: 0.054 µM
- MIC [4]: 0.57 µM (≈ 0.677 µg/mL)

Structure (SMILES): CO/N=C1\C[C@@H](C)O[C@@H](O[C@@H]2[C@@H](C)[C@H](O[C@H]3C[C@@](C)(O)[C@@H](O)[C@H](C)O3)[C@@H](C)C(=O)O[C@H]([C@@H](C)CO[C@@H]3O[C@H](C)[C@@H](O)[C@@H](OC)[C@H]3OC)[C@H](C)[C@@H](OC(=O)CC(C)C)[C@@H](C)C(=O)[C@@](C)(OC(=O)NCCNS(=O)(=O)c3ccccc3[N+](=O)[O-])C[C@@H]2C)[C@@H]1O [SEQ-977]
- IC50 [1, 20]: 0.034 µM
- MIC [4]: 0.13 µM (≈ 0.164 µg/mL)

Structure (SMILES): CC[C@H]1OC(=O)C[C@@H](O)[C@H](C)[C@@H](O[C@@H]2O[C@H](C)[C@@H](O[C@H]3C[C@@](C)(O)[C@@H](O)[C@H](C)O3)[C@H](N(C)C)[C@H]2O)[C@@H](CC=O)C[C@@H](C)C(=O)/C=C/C(C)=C/[C@@H]1CO[C@@H]1O[C@H](C)[C@@H](O)[C@@H](OC)[C@H]1OC [Tylosin, reference compound]
- IC50 [1, 18]: 0.0892 µM
- IC50 [2, 19]: 0.377 µM

Structure (SMILES): NC(=O)c1cnccn1 [Z, Pyrazinamide]
- Mean ± SD lung CFU counts, Week 4 [3]: 5.99 ± 0.19

Structure (SMILES): CC[C@H]1OC(=O)[C@H](C)[C@@H](O[C@H]2C[C@@](C)(OC)[C@@H](O)[C@H](C)O2)[C@H](C)[C@@H](O[C@@H]2O[C@H](C)C[C@H](N(C)C)[C@H]2O)[C@](C)(O)C[C@@H](C)/C(=N\OCOCCOC)[C@H](C)[C@@H](O)[C@]1(C)O [roxithromycin, reference compound]
- MIC [4]: 32 µM (≈ 26.8 µg/mL)
